The results in this text go back to ChEMBL document CHEMBL2311464, “Potent inhibitors of CDK5 derived from roscovitine: synthesis, biological evaluation and molecular modelling” (Bioorg Med Chem Lett, 2013).

The species named for assay [1] is Sus scrofa. Description: Inhibition of porcine brain CK1 delta/epsilon using RRKHAAIGpSAYSITA as substrate at 0.1 uM measured after 30 mins by scintillation counting.
For assay [2], the target named is Cyclin-dependent kinase 1/cyclin B1 (Homo sapiens, UniProt P06493). The experiment in a line: Inhibition of CDK2/cyclin B (unknown origin) after 30 mins by scintillation counting.
Cyclin-dependent kinase 1/cyclin B1, sequence (P06493 whole entry): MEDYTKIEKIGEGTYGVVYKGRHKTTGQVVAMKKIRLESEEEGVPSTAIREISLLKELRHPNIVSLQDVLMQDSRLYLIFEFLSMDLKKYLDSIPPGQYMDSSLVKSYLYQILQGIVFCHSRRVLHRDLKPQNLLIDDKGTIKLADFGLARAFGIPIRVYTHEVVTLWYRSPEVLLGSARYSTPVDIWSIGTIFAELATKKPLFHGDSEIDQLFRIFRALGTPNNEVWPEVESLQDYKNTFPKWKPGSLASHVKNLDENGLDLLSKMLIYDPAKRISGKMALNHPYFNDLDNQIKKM
Cyclin-dependent kinase 1/cyclin B1, sequence (P14635 whole entry, further chain): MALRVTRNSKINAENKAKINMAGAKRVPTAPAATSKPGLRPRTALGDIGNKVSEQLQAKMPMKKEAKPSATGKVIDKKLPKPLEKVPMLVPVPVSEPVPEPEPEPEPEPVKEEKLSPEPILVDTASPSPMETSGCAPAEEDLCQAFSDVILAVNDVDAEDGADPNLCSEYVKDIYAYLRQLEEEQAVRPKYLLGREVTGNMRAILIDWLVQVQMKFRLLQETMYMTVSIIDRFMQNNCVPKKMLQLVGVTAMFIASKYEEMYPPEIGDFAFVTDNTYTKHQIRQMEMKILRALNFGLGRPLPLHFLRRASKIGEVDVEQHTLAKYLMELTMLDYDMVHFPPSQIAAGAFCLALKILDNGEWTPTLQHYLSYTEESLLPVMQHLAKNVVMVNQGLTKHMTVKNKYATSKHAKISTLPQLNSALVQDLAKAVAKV
Assay [3] is described as follows: Inhibition of porcine brain CK1 delta/epsilon using RRKHAAIGpSAYSITA as substrate measured after 30 mins by scintillation counting. Further details: species or system Sus scrofa.
In assay [4] the target is Cyclin-dependent kinase 5/CDK5 activator 1 (Homo sapiens, UniProt Q00535). The experiment in a line: Inhibition of recombinant human CDK5/p25 after 30 mins by scintillation counting. In kind it is protein-complex assay.
Cyclin-dependent kinase 5/CDK5 activator 1, sequence (Q00535 whole entry): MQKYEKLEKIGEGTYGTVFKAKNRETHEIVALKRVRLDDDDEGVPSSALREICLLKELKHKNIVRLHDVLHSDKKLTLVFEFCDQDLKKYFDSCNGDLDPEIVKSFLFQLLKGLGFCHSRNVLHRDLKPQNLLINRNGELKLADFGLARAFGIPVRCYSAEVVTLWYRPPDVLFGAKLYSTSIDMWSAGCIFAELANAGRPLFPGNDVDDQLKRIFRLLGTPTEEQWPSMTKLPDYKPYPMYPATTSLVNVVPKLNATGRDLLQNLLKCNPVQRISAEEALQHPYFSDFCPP
Cyclin-dependent kinase 5/CDK5 activator 1, sequence (Q15078 whole entry, further chain): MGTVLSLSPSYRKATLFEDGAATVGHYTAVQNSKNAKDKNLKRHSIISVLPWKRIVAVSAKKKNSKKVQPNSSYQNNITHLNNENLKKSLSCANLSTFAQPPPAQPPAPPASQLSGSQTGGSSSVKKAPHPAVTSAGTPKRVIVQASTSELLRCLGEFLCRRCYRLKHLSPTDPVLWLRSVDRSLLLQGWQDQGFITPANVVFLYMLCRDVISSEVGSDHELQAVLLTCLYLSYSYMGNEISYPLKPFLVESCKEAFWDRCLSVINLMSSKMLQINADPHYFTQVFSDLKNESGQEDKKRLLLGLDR
For assay [5], the system named is SH-SY5Y. Description: Ratio of DRF53 IC50 to compound IC50 for human SH-SY5Y cells after 48 hrs by MTS assay. Format: functional.
Assay [6] deals with SH-SY5Y. Description: Ratio of roscovitine IC50 to compound IC50 for human SH-SY5Y cells after 48 hrs by MTS assay. Format: functional.
Assay [7] deals with Dual specificity tyrosine-phosphorylation-regulated kinase 1A (Homo sapiens, UniProt Q13627). The experiment in a line: Inhibition of recombinant GST-fused human DYRK1A expressed in Escherichia coli using KKISGRLSPIMTEQ as substrate.
The target in assay [8] is Glycogen synthase kinase-3 (Sus scrofa, UniProt B2LUN4+I6LNT8). Description: Inhibition of porcine GSK-3alpha/beta using YRRAAVPPSPSLSRHSSPHQSpEDEEE as substrate measured after 30 mins by scintillation counting.
Assay [9] has as its target Cyclin-dependent kinase 2/cyclin A (Homo sapiens, UniProt P24941). Description: Inhibition of recombinant human CDK2/cyclin A after 30 mins by scintillation counting. In kind it is protein-complex assay.
Assay [10] in a line: cells. The note with it: Homo sapiens, SH-SY5Y, 48 h.
Description: Cytotoxicity against human SH-SY5Y cells after 48 hrs by MTS assay

Compound `CC(C)[C@H](CO)Nc1nc(Nc2cccc(Cl)c2)c2ncn(C(C)C)c2n1` gave an inhibition in assay [1] of 100%.

`CC[C@H](CO)Nc1nc(Nc2cccc(-c3ccccn3)c2)c2ncn(C(C)C)c2n1`: the values for the IC50 in [2], in assay [3] and in assay [4] were 220 nM, 14 nM and 80 nM, respectively.

Turning to `CC(C)n1cnc2c(Nc3ccncn3)nc(Cl)nc21`, the “Ratio IC50” value in assay [5] and in [6] was 5 each time. Also, the IC50 was greater than 10000 nM in [7]; 8000 nM in assay [3]; greater than 10000 nM in assay [8]; greater than 10000 nM in assay [4]; 13000 nM in assay [9]; 1800 nM in assay [10].
